From patent publication US9951226B2, “Compound based on cyanine scaffold for diagnosis sepsis by selectively detect glutathione” (EWHA UNIVERSITY—INDUSTRY COLLABORATION FOUNDATION, priority 2014, dated 2018)

Assays:
[1] = Detection of biothiol: absorption and fluorescence spectrum with endogenous amino acids in HEPES buffer; assay type: biochemical; settings: 10 μM compound; for absorption strength at 750 nm: HEPES pH 7.4, 10% DMSO, 25° C.; for fluorescence strength at 736 nm: λex=730 nm
Description: 10 μM of the compound prepared in Example 1 and 100 μM of each endogenous amino acid (glutathione, cysteine, homocysteine, dithiothreitol, phenylalanine, histidine, glutamine, lysine, glutamate, glycine, serine, alanine, arginine, methionine, tyrosine) were added to HEPES (4-(2-hydroxyethyl)piperazine-1-ethanesulfonic acid) buffer (10 mM, pH=7.4) containing 10% dimethylsulfoxide (DMSO), followed by observation of absorption spectrum presented through UV-vis sepctra (Scinco 3000 spectrophotometer, 1 cm quartz cell) at 25° C.
(§1) The following experiment was performed by the same manner as described in Experimental Example <1-1> except that fluorescence spectrum was observed by using RF-5310/PC fluorescence spectrometer (Shimada, 1 cm quartz cell) instead of observing absorption spectrum via UV-vis sepctra (Scinco 3000 spectrophotometer, 1 cm quartz cell) (λex=730 nm, λem=736 nm, slit:10/10 nm).

HeLa cells = assay: Detection of intracellular biothiol in HeLa cells, confocal laser scanning microscope; assay type: cell-based, human; settings: 10 μM compound
Description: HeLa cells (human adenocarcinoma cells, Korea Cell Line Bank) were cultured in RPMI 1640 (Roswell Park Memorial Institute) supplemented with 10% heat-inactivated fetal bovine serum (FBS), 100 U/mL penicillin, and 100 U/mL streptomycin in a 37° C. 5% CO2 incubator. The cells were either treated or not treated with 1 mM of N-methylmaleimide (NMM) known as a thiol blocker for 20 minutes. 100 μM of each amino acid containing thiol group (R—SH) such as cysteine, homocysteine, and glutathione was added thereto. Then, the cells were seeded in 35-mm glass bottomed dishes at the density of 3×10^5 cells/dish in 1640 medium. 24 hours later, 10 μM of the compound prepared in Example 1 was added thereto, followed by culture at 37° C. for 20 minutes. The cells were washed with DPBS (Dulbecco's Phosphate Buffered Saline) twice to eliminate the remaining compound, followed by imaging with confocal laser scanning microscope (Fluoview 1200, Olympus, Japan). At this time, the emitting filter with the excitation wavelength of 635 nm and the band-path (BP) of 655˜755 nm was used.

[2] = Glutathione selectivity: absorption/fluorescence spectrum with various amino acids in HEPES buffer; assay type: biochemical
Description: 10 μM of the compound prepared in Example 2 was treated to HEPES (4-(2-hydroxyethyl)piperazine-1-ethanesulfonic acid) buffer (10 mM, pH=7.4) containing 10% DMSO and 100 μM of each glutathione, cysteine, homocysteine, dithiothreitol, phenylalanine, histidine, glutamine, lysine, glutamate, glycine, serine, alanine, arginine, methionine, and tyrosine, followed by observation of fluorescence spectrum at 25° C. by using RF-5310/PC fluorescence spectrometer (Shimada, 1 cm quartz cell).
An experiment was performed by the same manner as described in Experimental Example 3 except that the fragment 1 or the fragment 2 was used instead of the compound prepared in Example 2. […] To disclose the reason in relation to the above, the 3-dimensional structure of each of the compound of Example 1, the compound of Example 2, and the fragment 1 or the fragment 2, was investigated along with band-gap.
10 μM of the compound prepared in Example 3 and 100 μM of each endogenous amino acid (alanine, arginine, cysteine, glutamate, glycine, glutathione, homocysteine, histidine, lysine, methionine, serine, and tyrosine) were added to HEPES (4-(2-hydroxyethyl)piperazine-1-ethanesulfonic acid) buffer (10 mM, pH=7.4) containing 10% dimethylsulfoxide (DMSO), followed by observation of absorption spectrum presented through UV-vis sepctra (Scinco 3000 spectrophotometer, 1 cm quartz cell) at 25° C.
as §1, with “<15-1>” for “<1-1>”

[3] = Absorption and fluorescence spectrum according to the concentration of glutathione; assay type: biochemical; settings: for absorption signal at 830 nm / fluorescence signal at 780 nm: 10 μM compound
Description: (§2) 10 μM of the compound prepared in Example 2 and glutathione were added to HEPES (4-(2-hydroxyethyl)piperazine-1-ethanesulfonic acid) buffer (10 mM, pH=7.4) containing 10% dimethylsulfoxide (DMSO) with raising slowly the concentration of glutathione from 0 to 50 μM, during which the changes of absorption spectrum were observed using UV-vis sepctra (Scinco 3000 spectrophotometer, 1 cm quartz cell) at 25° C.
as §1, with “<4-1>” for “<1-1>”
as §2, with “Example 3” for “Example 2”, “to 100” for “to 50”
as §1, with “<16-1>” for “<1-1>”

[4] = 100 μM amino acids containing thiol group (glutathione, cysteine, homocysteine, dithiothreitol)
[5] = 100 μM other amino acids not-containing thiol group
[6] = 10 μM compound, 100 μM other amino acids except glutathione
[7] = glutathione raised from 0 to 100 μM

With CCCN1/C(=C/C=C2\CCCC(/C=C/C3=[N+](CCC)c4ccccc4C3(C)C)=C2N2CCN(S(=O)(=O)c3ccc([N+](=O)[O-])cc3[N+](=O)[O-])CC2)C(C)(C)c2ccccc21.[I-] [Example 1, 2-((E)-2-((E)-3-((E)-2-(3,3-dimethyl-1-propylindolium-2-ylidene)ethylidene)-2-(4-(2,4-dinitrophenylsulfonyl)piperazine-1-yl)cyclohex-1-enyl)binyl)-3,3-dimethyl-1-propyl-3H-indolium iodide] the “absorption strength at 750 nm” value [1, 4] was “strong absorption strength”, the “fluorescence strength at 736 nm” value [1, 4] was “strong fluorescence strength” and the “absorption strength at 750 nm” value [1, 5] was “weak absorption strength”. The “fluorescence strength at 736 nm” value [1, 5] was “weak fluorescence strength”, the “red fluorescence under confocal laser scanning microscope” value (from here on “red fluorescence”) (HeLa cells; HeLa cells pre-treated with NMM, 100 μM cysteine added) was “strong red fluorescence was observed” and the “red fluorescence” value (HeLa cells; HeLa cells pre-treated with NMM, 100 μM glutathione added) was “strong red fluorescence was observed”. The “red fluorescence” value (HeLa cells; HeLa cells pre-treated with NMM, 100 μM homocysteine added) was “strong red fluorescence was observed”, the “red fluorescence” value (HeLa cells; HeLa cells pre-treated with thiol blocker NMM 1 mM) was “red fluorescence was not observed” and the “red fluorescence” value (HeLa cells; HeLa cells, 20 minutes) was “strong red fluorescence was detected”.

With CCCCN1C(=O)c2cccc3c(S(=O)(=O)N4CCN(C5=C(/C=C/C6=[N+](CCC)c7ccccc7C6(C)C)CCC/C5=C\C=C5\N(CCC)c6ccccc6C5(C)C)CC4)ccc(c23)C1=O.[I-] [Example 3, 2-((E)-2-((E)-2-(4-((2-butyl-1,3-dioxo-2,3-dihydro-1H-benzeneisoquinoline-6-yl)sulfonyl)piperazine-1-yl)-3-((E)-2-(3,3-dimethyl-1-propylindolin-2-ylidene)ethylidene)cyclohex-1-en-1-yl)binyl)-3,3-dimethyl-1-propyl-3H-indolium iodide] the “fluorescence signal near 780 nm” value ([2]; 10 μM compound, 100 μM glutathione) was “strong fluorescence signal”, the “absorption signal near 830 nm” value ([2]; 10 μM compound, 100 μM glutathione, HEPES pH 7.4, 10% DMSO, 25° C.) was “weak absorption signal” and the “absorption signal at 830 nm” value [2, 6] was “strong absorption signal”. The “fluorescence signal at 780 nm” value [2, 6] was “weak fluorescence signal”, the “absorption signal at 830 nm” value ([3]; glutathione not added) was “strong absorption signal” and the “fluorescence signal at 780 nm” value ([3]; glutathione not added) was “weak fluorescence signal”. For the same compound, the “absorption signal at 830 nm” value [3, 7] was “getting weaker”, the “fluorescence signal at 780 nm” value [3, 7] was “getting stronger” and the “dependence of the reaction on glutathione concentration” value ([3]; conclusion from absorption and fluorescence spectra) was “dose-dependently”.

For CCCN1/C(=C/C=C2\CCCC(/C=C/C3=[N+](CCC)c4ccccc4C3(C)C)=C2N2CCNCC2)C(C)(C)c2ccccc21 [fragment 2, 2-((E)-2-((E)-3-((E)-2-(3,3-dimethyl-1-propylindolin-2-ylidene)ethylidene)-2-(piperazine-1-yl)cyclohex-1-enyl)binyl)-3,3-dimethyl-1-propyl-3H-indolium iodide], the “changes in absorption or fluorescence spectrum (capacity of detecting glutathione)” value ([2]; same manner as Experimental Example 3, fragment instead of Example 2) was “no changes in absorption or fluorescence spectrum were detected”.
